According to patent publication US4632922A, “Oxomorpholinyl dimer and rescue of anthracycline and mitomycin C damage” (The United States of America as represented by the …, priority 1985, dated 1986):

What was measured:
[1] = Kinetics of reaction of DHM3 with daunorubicin in methanol solvent
Protocol: Oxomorpholinyl dimer DHM3 (5.8 mg) was dissolved in 100 ml of oxygen-free dichloromethane by stirring under nitrogen for 1 h. A portion of the solution (1.0 ml, 1.8×10^-4 mmol) of DHM3 was transferred via syringe to the spectrophotometric compartment of a two-compartment Pyrex cell with attachment for connection to a vacuum line with an Ultra Torr Union. The solvent was then evaporated with a stream of nitrogen. Daunorubicin hydrochloride (8.83 mg) was dissolved in 100 ml of a methanolic solution of 18.9 mg of tris(hydroxymethyl)aminomethane (Tris) and 24.7 mg of Tris hydrochloride. A portion of this solution (2.5 ml, 3.9×10^-4 mmol of 6) was introduced via syringe into the second compartment of the cell. The methanol solution was freeze (liquid nitrogen)-pump (2×10^-6 Torr)-thaw degassed through four cycles, sealed, and placed in a thermostatted cell holder at 25.1±0.1° C. for about 15 min. prior to mixing the solution with DHM3. After mixing, the average absorbance at 618 and 620 nm was recorded versus time. A non-linear least-squares treatment of the data as mentioned below gave a first order rate constant for bond homolysis of DHM3 equal to 1.8×10^-3 sec^-1.
The oxomorpholinyl dimer DHM3 causes reductive elimination of the sugar moiety, daunosamine, of daunorubicin (6) in much the same way as the structurally related bi(3,5,5-trimethyl-2-oxomorpholin-3-yl) (9). (See Schematic FIG. 2). […] The kinetics were established by regressional, non-linear least squares fitting of the absorbance versus time data to equation 1,
-k1))(e^-k.sbsp.1^t -e^-k.sbsp.2^t)
where At is the absorbance of 7 at time t, ε7 is the extinction coefficient of 7 at 618-620 nm, [DHM3]o is the concentration of DHM-3 at time zero, k1 is the rate constant for bond homolysis of DHM3 and k2 is the rate constant for tautomerization of 7 to 8. The value obtained for k1, 1.8×10^-3 sec^-1, was approximately half that obtained for bond homolysis of 9. […]

[2] = test system: drug-induced skin necrosis; assay: Protection by DHM3 against drug-induced skin necrosis in the swine model; assay type: in vivo; conditions: for Percent Reduction of Maximal Ulcer Size: DHM3 15 min later
Protocol: (§1) DOX HCl (2.0 mg/ml) was administered intradermally (i.d.) with a 25 gauge needle inserted approximately 4 to 5 mm into the skin. Following the injection of 0.5, 0.75 or 1.0 ml (1.0, 1.5, or 2.0 mg, respectively) DOX solution, the syringe was removed from the hub leaving the needle in place. After the indicated time interval, 1.0 ml (10 mg) DHM3 was injected through the same needle and the needle was then removed. Control sites received 1.0 ml sterile water instead of DHM3. The injection sites were along the mid-lateral aspect of each side of the swine and were 4-5 cm apart (6-8 injection sites per side). One animal was used for a dose experiment where DOX, 0.5 ml/site was injected along one side and 1.0 ml/site was injected along the contralateral side. Fifteen minutes later, DHM3 or water was injected into alternating sites as described above. A second animal received DOX, 0.75 ml/site along both sides. DHM3 or water was injected into alternating sites at times varying from 5 to 120 minutes following DOX administration.
In a separate study, equimolar amounts of several compounds used in experimental or clinical cancer chemotherapy were injected into pig skin using the same method described above. Paired injection sites were treated 15 minutes later with either H2 O or DHM3 in duplicate.
(§2) All lesions were measured by a single observer with metric calipers three times weekly for two weeks, followed by weekly measurements thereafter. The areas of skin ulceration and induration were estimated by the product of the cross perpendicular diameters. The total toxicity of DOX-induced skin ulceration was determined by calculating the area under the ulceration-time curve (AUC) in mm^2 -days.

[3] = test system: DOX-induced skin ulceration; assay: Rescue by DHM3 of DOX-induced skin necrosis (ulceration, induration) in swine; assay type: in vivo, miniature white swine
Protocol: In order to produce anthracycline induced tissue damage, clinical grade doxorubicin (DOX) hydrochloride was obtained as a representative anthracycline chemical from the Drug Synthesis Branch, Developmental Therapeutics Program, National Cancer Institute. Each vial contained 10 mg DOX hydrochloride and 50 mg lactose which was reconstituted with 5.0 ml sterile 0.9% NaCl solution to give a final drug concentration of 2.0 mg/ml. DHM3 solution was prepared by dissolving 10 mg in ice-cold water which had been purged with N2 gas for 5 minutes. Dissolution was facilitated by brief sonication to give a final concentration of 10 mg/ml. The solution was kept cold (≈4° C.) and protected from air and light.
Female weanling miniature white swine weighing approximately 12 kg were obtained from the Veterinary Resources Branch, National Institutes of Health. The development of this strain of swine has been described previously (Sachs, et al., Transplantation 22:559-567, 1976). Each animal was housed in a 6×4 ft metabolic cage and was fed standard NIH show chow, 1.5 lbs twice daily.
Each animal was anesthesized by intramuscular injections of ketamine, 20 mg/kg, xylazine, 20 mg/kg, and atropine, 1.0 mg. Following endotracheal intubation anesthesia was maintained with a mixture of nitrous oxide, halothane, and oxygen gas.
as §1, §2
In order to assess the extent of tissue injury following intradermal DOX or DHM3, incisional biopsies were performed on representative lesions 6 and 20 days following drug injection. These samples were placed in 10% buffered formalin and processed for examination by standard light microscopy (Pathco Inc., Potomac, MD.).

[4] = DHM3 10 mg 15 min after DOX 2.0 mg i.d.

## CC1(CO)COC(=O)C(C)(C2(C)NC(C)(CO)COC2=O)N1 (centres unmarked) [DHM3, bi(3,5-dimethyl-5-hydroxymethyl-2-oxomorpholin-3-yl)]
[1]; 1:2 molar ratio, oxygen degassed methanol, 25° C.
  reaction product with daunorubicin: gives 7-deoxydaunorubicinone 8 as the only reaction product
[1]; methanol, 25° C.
  k1 relative to that obtained for bond homolysis of 9: approximately half
[1]; methanol, 25.1±0.1° C., with daunorubicin
  first order rate constant for bond homolysis of DHM3 (k1): 0.0018 s⁻¹
[2]; against 4'-Epidoxorubicin, Exper. 4
  Percent Reduction of Maximal Ulcer Size: 51%
[2]; against 4-Demethoxydaunorubicin, Exper. 4
  Percent Reduction of Maximal Ulcer Size: 79%
[2]; against 5-Iminodaunorubicin, Exper. 3
  Percent Reduction of Maximal Ulcer Size: 53%
[2]; against Aclarubicin, Exper. 4
  Percent Reduction of Maximal Ulcer Size: 46%
[2]; against Adriamycin, Exper. 1
  Percent Reduction of Maximal Ulcer Size: 77%
[2]; against Adriamycin, Exper. 2
  Percent Reduction of Maximal Ulcer Size: 40%
[2]; against Daunorubicin, Exper. 2
  Percent Reduction of Maximal Ulcer Size: 39%
[2]; against Menogaril, Exper. 4
  Percent Reduction of Maximal Ulcer Size: 61%
[2]; against Mitomycin C, Exper. 3
  Percent Reduction of Maximal Ulcer Size: 58%
[2]; against Mitoxantrone
  protection against drug-induced skin necrosis: no protection observed
[2]; against Vinblastine
  protection against drug-induced skin necrosis: no protection observed
[2]; against Vincristine
  protection against drug-induced skin necrosis: no protection observed
[2]; several anthracycline analogs and mitomycin C
  protection against tissue necrosis: effective in all cases
[2]; vinca alkaloid and mitoxantrone
  protection against skin injury: did not protect
[3]; [4]
  extent of skin necrosis: greatly reduced
  reduction of peak area size of the ulcer: 80%
[3]; DHM3 10 mg 15 min after DOX 2.0 mg, control 7 weeks
  time to complete healing: ≤ 5 weeks
[3]; DHM3 10 mg i.d. 5 min after DOX 1.5 mg i.d.
  AUC (total toxicity of skin ulceration): 960 mm^2 . days
[3]; DHM3 10 mg i.d. 15 min after DOX 1.0 mg i.d., mean of 3 lesions, p < .005
  AUC (total toxicity of skin ulceration): 840 ± 420 mm^2 . days
[3]; DHM3 10 mg i.d. 15 min after DOX 1.5 mg i.d.
  AUC (total toxicity of skin ulceration): 2220 mm^2 . days
[3]; DHM3 10 mg i.d. 15 min after DOX 2.0 mg i.d., mean of 3 lesions, p < .001
  AUC (total toxicity of skin ulceration): 1020 ± 420 mm^2 . days
[3]; DHM3 10 mg i.d. 30 min after DOX 1.5 mg i.d.
  AUC (total toxicity of skin ulceration): 3240 mm^2 . days
[3]; DHM3 10 mg i.d. 60 min after DOX 1.5 mg i.d.
  AUC (total toxicity of skin ulceration): 4020 mm^2 . days
[3]; DHM3 10 mg i.d. 90 min after DOX 1.5 mg i.d.
  AUC (total toxicity of skin ulceration): 5340 mm^2 . days
[3]; DHM3 10 mg i.d. 120 min after DOX 1.5 mg i.d.
  AUC (total toxicity of skin ulceration): 8400 mm^2 . days
[3]; DHM3 5 min after DOX
  protection against DOX injury: Optimal protection
[3]; DHM3 after DOX
  reduction of the size of surrounding induration: observed to parallel the ulcer measurements
[3]; DHM3 injected into DOX site
  color change of stained skin: immediately changed to a rusty brown
[3]; DOX 1.0 mg, compared with 2.0 mg
  reduction of DOX induced injury: similar
[3]; interval greater than 60 min
  protection against DOX injury: no protection is observed
[3]; interval increased to 60 min
  protection against DOX injury: Progressively less protection
[3]; up to 60 min after i.d. DOX
  protection from skin necrosis (maximal ulcer area and time required for healing): considerable protection
